Results reported in PubChem BioAssay (NCI).
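Growth conditions: 96-well plates. Treatment: test compound, 48 hours, 5 concentrations. Analysis: linear interpolation between bracketing concentrations; unreached endpoints set to highest concentration. GI50 = concentration required for 50% inhibition of growth. TGI: concentration producing complete growth inhibition.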

How the values were obtained:
Experiment in all cases: NCI anticancer screen, dose series, 48 h
SF-539 CNS = tested on: SF-539 CNS
SW-620 colon = tested on: SW-620 colon
OVCAR-3 ovarian = tested on: OVCAR-3 ovarian
M14 melanoma = tested on: M14 melanoma
IGROV1 ovarian = tested on: IGROV1 ovarian
T-47D breast = tested on: T-47D breast
MDA-MB-231 breast = tested on: MDA-MB-231 breast
SK-MEL-5 melanoma = tested on: SK-MEL-5 melanoma
SNB-19 CNS = tested on: SNB-19 CNS
SK-MEL-2 melanoma = tested on: SK-MEL-2 melanoma
HOP-62 NSCLC = tested on: HOP-62 NSCLC
COLO 205 colon = tested on: COLO 205 colon
OVCAR-4 ovarian = tested on: OVCAR-4 ovarian
SK-MEL-28 melanoma = tested on: SK-MEL-28 melanoma
LOX IMVI melanoma = tested on: LOX IMVI melanoma
HCC-2998 colon = tested on: HCC-2998 colon
HT29 colon = tested on: HT29 colon
HS 578T breast = tested on: HS 578T breast
TK-10 renal = tested on: TK-10 renal
EKVX NSCLC = tested on: EKVX NSCLC
SF-268 CNS = tested on: SF-268 CNS
OVCAR-5 ovarian = tested on: OVCAR-5 ovarian
K-562 leukemia = tested on: K-562 leukemia
NCI-H460 lung = tested on: NCI-H460 lung
MOLT-4 leukemia = tested on: MOLT-4 leukemia
PC-3 prostate = tested on: PC-3 prostate
CCRF-CEM leukemia = tested on: CCRF-CEM leukemia
A549 NSCLC = tested on: A549 NSCLC
NCI-H226 lung = tested on: NCI-H226 lung
ACHN renal = tested on: ACHN renal
SF-295 CNS = tested on: SF-295 CNS
OVCAR-8 ovarian = tested on: OVCAR-8 ovarian
UO-31 renal = tested on: UO-31 renal
NCI-H522 lung = tested on: NCI-H522 lung
KM12 colon = tested on: KM12 colon
UACC-62 melanoma = tested on: UACC-62 melanoma
DU-145 prostate = tested on: DU-145 prostate
HCT-15 colon = tested on: HCT-15 colon
UACC-257 melanoma = tested on: UACC-257 melanoma
U251 CNS = tested on: U251 CNS
SN12C renal = tested on: SN12C renal
HOP-92 NSCLC = tested on: HOP-92 NSCLC
MALME-3M melanoma = tested on: MALME-3M melanoma
NCI/ADR-RES ovarian = tested on: NCI/ADR-RES ovarian
MCF7 breast = tested on: MCF7 breast
RPMI-8226 leukemia = tested on: RPMI-8226 leukemia
CAKI-1 renal = tested on: CAKI-1 renal
MDA-MB-435 = tested on: MDA-MB-435
SR leukemia = tested on: SR leukemia
RXF 393 renal = tested on: RXF 393 renal
SNB-75 CNS = tested on: SNB-75 CNS
HL-60(TB) leukemia = tested on: HL-60(TB) leukemia
A498 renal = tested on: A498 renal
NCI-H23 lung = tested on: NCI-H23 lung
HCT-116 colon = tested on: HCT-116 colon

O=C(C[Si](CC(=O)c1cccc(C(F)(F)F)c1)CC(=O)c1cccc(C(F)(F)F)c1)c1cccc(C(F)(F)F)c1
GI50 (SF-539 CNS): 1.85 µM | TGI (SF-539 CNS): 3.85 µM | GI50 (SW-620 colon): 3.23 µM | TGI (SW-620 colon): 13.3 µM | GI50 (OVCAR-3 ovarian): 3.32 µM | TGI (OVCAR-3 ovarian): 10.5 µM | GI50 (M14 melanoma): 3.16 µM | TGI (M14 melanoma): 10.1 µM | GI50 (IGROV1 ovarian): 6.24 µM | TGI (IGROV1 ovarian): 27.8 µM | GI50 (T-47D breast): 4.48 µM | TGI (T-47D breast): 13.9 µM | GI50 (MDA-MB-231 breast): 2.3 µM | TGI (MDA-MB-231 breast): 4.73 µM | GI50 (SK-MEL-5 melanoma): 1.63 µM | TGI (SK-MEL-5 melanoma): 3.03 µM | GI50 (SNB-19 CNS): 3.88 µM | TGI (SNB-19 CNS): 13.4 µM | GI50 (SK-MEL-2 melanoma): 2.28 µM | TGI (SK-MEL-2 melanoma): 5.29 µM | GI50 (HOP-62 NSCLC): 3.44 µM | TGI (HOP-62 NSCLC): 12 µM | GI50 (COLO 205 colon): 1.67 µM | TGI (COLO 205 colon): 3.07 µM | GI50 (OVCAR-4 ovarian): 3.12 µM | TGI (OVCAR-4 ovarian): 12.1 µM | GI50 (SK-MEL-28 melanoma): 3.51 µM | TGI (SK-MEL-28 melanoma): 13.6 µM | GI50 (LOX IMVI melanoma): 2.94 µM | TGI (LOX IMVI melanoma): 11.4 µM | GI50 (HCC-2998 colon): 3.46 µM | TGI (HCC-2998 colon): 15 µM | GI50 (HT29 colon): 2.55 µM | TGI (HT29 colon): 12 µM | GI50 (HS 578T breast): 4.51 µM | TGI (HS 578T breast): 25.9 µM | GI50 (TK-10 renal): 3.52 µM | TGI (TK-10 renal): 14.1 µM | GI50 (EKVX NSCLC): 3.1 µM | TGI (EKVX NSCLC): 11.5 µM | GI50 (SF-268 CNS): 3.8 µM | TGI (SF-268 CNS): 13.9 µM | GI50 (OVCAR-5 ovarian): 2.19 µM | TGI (OVCAR-5 ovarian): 6.51 µM | GI50 (K-562 leukemia): 3.57 µM | TGI (K-562 leukemia): 13.4 µM | GI50 (NCI-H460 lung): 3.18 µM | TGI (NCI-H460 lung): 10.4 µM | GI50 (MOLT-4 leukemia): 2.81 µM | TGI (MOLT-4 leukemia): 8.24 µM | GI50 (PC-3 prostate): 3.11 µM | TGI (PC-3 prostate): 11 µM | GI50 (CCRF-CEM leukemia): 3.1 µM | TGI (CCRF-CEM leukemia): 10.6 µM | GI50 (A549 NSCLC): 3.39 µM | TGI (A549 NSCLC): 11.3 µM | GI50 (NCI-H226 lung): 2.11 µM | TGI (NCI-H226 lung): 5.3 µM | GI50 (ACHN renal): 2 µM | TGI (ACHN renal): 4.94 µM | GI50 (SF-295 CNS): 2.88 µM | TGI (SF-295 CNS): 11.2 µM | GI50 (OVCAR-8 ovarian): 3.48 µM | TGI (OVCAR-8 ovarian): 10.9 µM | GI50 (UO-31 renal): 3.2 µM | TGI (UO-31 renal): 14.2 µM | GI50 (NCI-H522 lung): 2.6 µM | TGI (NCI-H522 lung): 9.01 µM | GI50 (KM12 colon): 3.25 µM | TGI (KM12 colon): 10.1 µM | GI50 (UACC-62 melanoma): 2.23 µM | TGI (UACC-62 melanoma): 6.28 µM | GI50 (DU-145 prostate): 4.43 µM | TGI (DU-145 prostate): 14.8 µM | GI50 (HCT-15 colon): 2.06 µM | TGI (HCT-15 colon): 6.25 µM | GI50 (UACC-257 melanoma): 2.65 µM | TGI (UACC-257 melanoma): 6.38 µM | GI50 (U251 CNS): 3.27 µM | TGI (U251 CNS): 10.4 µM | GI50 (SN12C renal): 3.03 µM | TGI (SN12C renal): 10.1 µM | GI50 (HOP-92 NSCLC): 2.15 µM | TGI (HOP-92 NSCLC): 6.43 µM | GI50 (MALME-3M melanoma): 4.03 µM | TGI (MALME-3M melanoma): 17.4 µM | GI50 (NCI/ADR-RES ovarian): 3.75 µM | TGI (NCI/ADR-RES ovarian): 15.4 µM | GI50 (MCF7 breast): 3.05 µM | TGI (MCF7 breast): 11.5 µM | GI50 (RPMI-8226 leukemia): 2.12 µM | TGI (RPMI-8226 leukemia): 5.71 µM | GI50 (CAKI-1 renal): 3.39 µM | TGI (CAKI-1 renal): 12.9 µM | GI50 (MDA-MB-435): 3.27 µM | TGI (MDA-MB-435): 10.4 µM | GI50 (SR leukemia): 2.72 µM | TGI (SR leukemia): 7.19 µM | GI50 (RXF 393 renal): 2.07 µM | TGI (RXF 393 renal): 4.3 µM | GI50 (SNB-75 CNS): 2.42 µM | TGI (SNB-75 CNS): 8.81 µM | GI50 (HL-60(TB) leukemia): 2.52 µM | TGI (HL-60(TB) leukemia): 5.99 µM | GI50 (A498 renal): 2.34 µM | TGI (A498 renal): 9.62 µM | GI50 (NCI-H23 lung): 3.27 µM | TGI (NCI-H23 lung): 15.6 µM | GI50 (HCT-116 colon): 2.41 µM | TGI (HCT-116 colon): 8.87 µM
